Columns and labels:
Test in all cases: relative viability vs DMSO control (72 h) (fraction); higher = more viable cells
A204 = test system: A204
Method in brief: (§1)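 Sarcoma cell lines were seeded in 384-well plates at densities set to reach 80–90% confluence. After 24 h, 2.5 µl of serially diluted compound was added (source plates 10 mM to 0.0002 mM), and plates were held 72 h at 37 °C, 5% CO2, with 0.1% DMSO vehicle and a 5 µM positive control. Relative viability came from ATPLite readings as percent growth, averaged over up to triplicate wells. Data were rescaled so full viability equals 1 and none equals 0.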

G401 = test system: G401
Method in brief: as §1

HS729 = test system: HS729
Method in brief: as §1

KHOS-240S = test system: KHOS-240S
Method in brief: as §1

MES-SA = test system: MES-SA
Method in brief: as §1

SK-ES-1 = test system: SK-ES-1
Method in brief: as §1

SK-LMS-1 = test system: SK-LMS-1
Method in brief: as §1

SW1353 = test system: SW1353
Method in brief: as §1

SW684 = test system: SW684
Method in brief: as §1

SW872 = test system: SW872
Method in brief: as §1

SW982 = test system: SW982
Method in brief: as §1

SYO-1 = test system: SYO-1
Method in brief: as §1

CS(=O)(=O)CCNCc1ccc(-c2ccc3ncnc(Nc4ccc(OCc5cccc(F)c5)c(Cl)c4)c3c2)o1 [Lapatinib]
Conditions	relative viability
A204, 0.00017 µM	1.06
A204, 0.00051 µM	1.07
A204, 0.00152 µM	1.06
A204, 0.00457 µM	1.07
A204, 0.01372 µM	1.06
A204, 0.04115 µM	1.08
A204, 0.1235 µM	1.07
A204, 0.3704 µM	1.09
A204, 1.111 µM	1.05
A204, 3.333 µM	0.701
A204, 10 µM	0.0212
G401, 0.00017 µM	1.01
G401, 0.00051 µM	1.01
G401, 0.00152 µM	1.01
G401, 0.00457 µM	1.01
G401, 0.01372 µM	1.02
G401, 0.04115 µM	1.04
G401, 0.1235 µM	1.01
G401, 0.3704 µM	0.966
G401, 1.111 µM	1.02
G401, 3.333 µM	1.01
G401, 10 µM	0.789
HS729, 0.00017 µM	0.93
HS729, 0.00051 µM	0.935
HS729, 0.00152 µM	0.873
HS729, 0.00457 µM	0.878
HS729, 0.01372 µM	0.939
HS729, 0.04115 µM	0.921
HS729, 0.1235 µM	0.93
HS729, 0.3704 µM	0.887
HS729, 1.111 µM	0.879
HS729, 3.333 µM	0.794
HS729, 10 µM	0.134
KHOS-240S, 0.00017 µM	1.04
KHOS-240S, 0.00051 µM	1.05
KHOS-240S, 0.00152 µM	1.07
KHOS-240S, 0.00457 µM	1.06
KHOS-240S, 0.01372 µM	1.09
KHOS-240S, 0.04115 µM	1.09
KHOS-240S, 0.1235 µM	1.07
KHOS-240S, 0.3704 µM	1.09
KHOS-240S, 1.111 µM	1.08
KHOS-240S, 3.333 µM	0.65
KHOS-240S, 10 µM	0.345
MES-SA, 0.00017 µM	0.933
MES-SA, 0.00051 µM	0.918
MES-SA, 0.00152 µM	0.904
MES-SA, 0.00457 µM	0.912
MES-SA, 0.01372 µM	0.923
MES-SA, 0.04115 µM	0.931
MES-SA, 0.1235 µM	0.945
MES-SA, 0.3704 µM	0.9335
MES-SA, 1.111 µM	0.915
MES-SA, 3.333 µM	0.683
MES-SA, 10 µM	0.0484
SK-ES-1, 0.00017 µM	1.05
SK-ES-1, 0.00051 µM	1.04
SK-ES-1, 0.00152 µM	1.02
SK-ES-1, 0.00457 µM	0.98
SK-ES-1, 0.01372 µM	1.06
SK-ES-1, 0.04115 µM	0.985
SK-ES-1, 0.1235 µM	1.02
SK-ES-1, 0.3704 µM	1.02
SK-ES-1, 1.111 µM	0.983
SK-ES-1, 3.333 µM	0.772
SK-ES-1, 10 µM	0.0529
SK-LMS-1, 0.00017 µM	1.1
SK-LMS-1, 0.00051 µM	1.09
SK-LMS-1, 0.00152 µM	1.08
SK-LMS-1, 0.00457 µM	1.13
SK-LMS-1, 0.01372 µM	1.17
SK-LMS-1, 0.04115 µM	1.15
SK-LMS-1, 0.1235 µM	1.07
SK-LMS-1, 0.3704 µM	1.1
SK-LMS-1, 1.111 µM	1.11
SK-LMS-1, 3.333 µM	0.824
SK-LMS-1, 10 µM	0.361
SW684, 0.00017 µM	1.15
SW684, 0.00051 µM	1.13
SW684, 0.00152 µM	1.14
SW684, 0.00457 µM	1.13
SW684, 0.01372 µM	1.13
SW684, 0.04115 µM	1.17
SW684, 0.1235 µM	1.15
SW684, 0.3704 µM	1.14
SW684, 1.111 µM	1.19
SW684, 3.333 µM	1.15
SW684, 10 µM	0.707
SW872, 0.00017 µM	1.03
SW872, 0.00051 µM	1.03
SW872, 0.00152 µM	1.03
SW872, 0.00457 µM	1.02
SW872, 0.01372 µM	1.01
SW872, 0.04115 µM	1.05
SW872, 0.1235 µM	1.05
SW872, 0.3704 µM	1.05
SW872, 1.111 µM	1.04
SW872, 3.333 µM	0.895
SW872, 10 µM	0.0477
SW982, 0.00017 µM	1.04
SW982, 0.00051 µM	1.04
SW982, 0.00152 µM	1.06
SW982, 0.00457 µM	1.03
SW982, 0.01372 µM	1.05
SW982, 0.04115 µM	1.06
SW982, 0.1235 µM	1.07
SW982, 0.3704 µM	1.09
SW982, 1.111 µM	1.09
SW982, 3.333 µM	0.968
SW982, 10 µM	0.0107
SW1353, 0.00017 µM	0.964
SW1353, 0.00051 µM	0.962
SW1353, 0.00152 µM	0.948
SW1353, 0.00457 µM	0.954
SW1353, 0.01372 µM	0.932
SW1353, 0.04115 µM	0.905
SW1353, 0.1235 µM	0.906
SW1353, 0.3704 µM	0.85
SW1353, 1.111 µM	0.863
SW1353, 3.333 µM	0.847
SW1353, 10 µM	0.807
SYO-1, 0.00017 µM	0.955
SYO-1, 0.00051 µM	0.93
SYO-1, 0.00152 µM	0.958
SYO-1, 0.00457 µM	0.959
SYO-1, 0.01372 µM	0.936
SYO-1, 0.04115 µM	0.949
SYO-1, 0.1235 µM	0.934
SYO-1, 0.3704 µM	0.944
SYO-1, 1.111 µM	0.912
SYO-1, 3.333 µM	0.637
SYO-1, 10 µM	0.165

Source: the supplement of paper PMC10883282
